Reference: publication PMC2736327 (Molecular carcinogenesis, 2009)

Target: autotaxin (ATX) (Homo sapiens, UniProt Q13822)
Type: biochemical

VPC8a202 was tested, and the Ki was about 390 nM.
